Experimental data as given in patent publication US8563549B2, “Pyrimidine derivatives used as PI-3 kinase inhibitors” (Novartis AG, priority 2006, dated 2013).

How the values were obtained:
[1] = test system: Akt^Ser473 phosphorylation; test: In vivo target modulation (PK/PD) in A2780 xenograft tumors (Biological Method 3); design: species or system nu/nu mice
Description: A2780 ovarian cancer cells obtained from George Coukos (Fox Chase Cancer Center, University of Pennsylvania, Philadelphia, Pa.) were maintained in DMEM (Invitrogen, Inc.) supplemented with 10% heat-inactivated fetal bovine serum with 1% glutamine. Cells were propagated as recommended by the Dr. Coukos and colleagues. Female nu/nu mice (8-12 weeks old, 20-25 g, Charles River) were used for all in vivo pharmacology studies. The mice were housed and maintained in accordance with state and federal guidelines for the humane treatment and care of laboratory animals and received food and water ad libitum. Cancer cells were harvested from mid-log phase cultures using trypsin-EDTA (Invitrogen, Inc.). […] Tumor volumes were determined by using StudyDirector software.
For PK/PD dose-dependent studies, tumor-bearing mice were given a single oral dose of compound at different concentrations (10, 30, 60 and 100 mg/kg or vehicle) and tumors were resected at 10 hr or 24 hr after dosing. […] Supernatants were taken after centrifugation of tumor lysates at 300×g for 10 min at 4° C. and the protein concentration in each supernatant was determined by BCA (BioRad). […] The density of the positive band on the X-ray film was scanned and the target modulation for each compound was expressed as percentage inhibition by each compound compared to vehicle treatment. […]

A2780 tumor xenograft = test: Efficacy study in A2780 ovarian cancer xenograft model (Biological Method 3); assay type: in vivo, nu/nu mice; settings: oral
Description: A2780 ovarian cancer cells obtained from George Coukos (Fox Chase Cancer Center, University of Pennsylvania, Philadelphia, Pa.) were maintained in DMEM (Invitrogen, Inc.) supplemented with 10% heat-inactivated fetal bovine serum with 1% glutamine. Cells were propagated as recommended by the Dr. Coukos and colleagues. Female nu/nu mice (8-12 weeks old, 20-25 g, Charles River) were used for all in vivo pharmacology studies. The mice were housed and maintained in accordance with state and federal guidelines for the humane treatment and care of laboratory animals and received food and water ad libitum. Cancer cells were harvested from mid-log phase cultures using trypsin-EDTA (Invitrogen, Inc.). Five million cells were subcutaneously injected into the right flank of each mouse. Compound treatment was initiated when tumor size reached to 300-400 mm^3 for PK/PD studies and 200-300 mm^3 for efficacy studies. All compound treatment was administrated orally. Tumor volumes were determined by using StudyDirector software.
For efficacy studies, A2780 cancer cells (5×10^6 in 100 μl of DMEM culture medium) were injected subcutaneously into the right flank of each nu/nu mouse. […] Tumor growth and animal body weight was measured twice weekly with daily clinical observation to monitor potential toxicities related to the treatment. […]

| SMILES | Duration of inhibition of Akt^Ser473 (>50% inhibition) [1] [h] | Antitumor activity (A2780 tumor xenograft; b.i.d., 30 mg/kg (FIG. 5)) | Tumor growth inhibition (A2780 tumor xenograft; daily, 100 mg/kg) |
| --- | --- | --- | --- |
| Nc1cc(C(F)(F)F)c(-c2cc(N3CCOCC3)nc(N3CCOCC3)n2)cn1 [Compound 10] | > 10 | significant antitumor activity | tumor growth stasis |
| Nc1ncc(-c2cc(OC3CCOCC3)nc(N3CCOCC3)n2)c(C(F)(F)F)n1 [Compound 66] | > 10 |  |  |
